According to patent publication US20110130397A1, “PYRROLINONE COMPOUNDS AS INHIBITORS OF BACTERIAL PEPTIDYL TRNA HYDROLASE AND USES THEREOF” (priority 2006, published 2011):
Several values for one entry are separate records, joined by “and”; a condition that tells them apart may be missing. Identical values can stand only once.

melting point	SMILES
195 to 196 °C	Cc1ccc(C(=O)C2=C(O)C(=O)N(C3CCCCC3)C2c2ccccc2F)o1 (stereo not shown) [Compound 432]
309 to 310 °C	O=C(C1=C(O)C(=O)N(c2nc3ccc(Cl)cc3s2)C1c1ccccc1F)c1nccs1 (stereo not shown) [Compound 435]
298 to 299 °C	O=C(C1=C(O)C(=O)N(c2nc3ccc(F)cc3s2)C1c1ccccc1F)c1nccs1 (stereo not shown) [Compound 437]
263 to 264 °C	COCC(=O)C1=C(O)C(=O)N(c2nc3ccc(Cl)cc3s2)C1c1ccc(F)cc1 (stereo not shown) [Compound 442]
228 to 229 °C	COCC(=O)C1=C(O)C(=O)N(c2nc3ccc(F)cc3s2)C1c1ccccc1F (stereo not shown) [Compound 443]
249 to 250 °C	COCC(=O)C1=C(O)C(=O)N(c2nc3ccc(F)cc3s2)C1c1ccc(F)cc1 (stereo not shown) [Compound 444]
218 to 219 °C	O=C(COc1ccccc1)C1=C(O)C(=O)N(c2nc3ccc(Cl)cc3s2)C1c1ccccc1F (stereo not shown) [Compound 446]
203 to 204 °C	O=C(COc1ccccc1)C1=C(O)C(=O)N(c2nc3ccc(Cl)cc3s2)C1c1ccc(F)cc1 (stereo not shown) [Compound 447]
246 to 247 °C	O=C(C1=C(O)C(=O)N(c2nc3ccc(Cl)cc3s2)C1c1ccccc1F)C1CC1 (stereo not shown) [Compound 451]
229 to 230 °C	O=C(C1=C(O)C(=O)N(c2nc3ccc(Cl)cc3s2)C1c1ccc(F)cc1)C1CC1 (stereo not shown) [Compound 452]
245 to 246 °C	O=C(C1=C(O)C(=O)N(c2nc3ccc(Cl)cc3s2)C1c1ccc(Cl)cc1)C1CC1 (stereo not shown) [Compound 453]
253 to 254 °C	O=C(C1=C(O)C(=O)N(c2nc3c(Cl)cccc3s2)C1c1ccccc1F)C1CC1 (stereo not shown) [Compound 456]
218 to 219 °C	O=C(C1=C(O)C(=O)N(c2nc3c(Cl)cccc3s2)C1c1ccc(F)cc1)C1CC1 (stereo not shown) [Compound 457]
196 to 197 °C	O=C(COc1ccccc1Cl)C1=C(O)C(=O)N(c2nc3ccc(Cl)cc3s2)C1c1ccc(F)cc1 (stereo not shown) [Compound 458]
143 to 145 °C	O=C(COc1ccccc1Cl)C1=C(O)C(=O)N(c2nc3c(Cl)cccc3s2)C1c1ccc(F)cc1 (stereo not shown) [Compound 460]
235 to 236 °C	Cc1ccc(C(=O)C2=C(O)C(=O)N(c3nc4ccc(Cl)cc4s3)C2c2ccc(F)c(F)c2)o1 (stereo not shown) [Compound 461, 1-(6-Chlorobenzo[d]thiazol-2-yl)-5-(3,4-difluorophenyl)-3-hydroxy-4-(5-methylfuran-2-carbonyl)-1H-pyrrol-2(5H)-one]
228 to 231 °C	Cc1ccc(C(=O)C2=C(O)C(=O)N(c3nc4ccc(F)cc4s3)C2c2ccc(-c3ccccc3)cc2)o1 (stereo not shown) [Compound 465]
222 to 223 °C	Cc1ccc(C(=O)C2=C(O)C(=O)N(c3nc4c(Cl)cccc4s3)C2c2ccc(-c3ccccc3)cc2)o1 (stereo not shown) [Compound 466]
208 to 209 °C	Cc1ccc(C(=O)C2=C(O)C(=O)N(c3nc4c(Cl)cccc4s3)C2c2ccc(Oc3ccccc3)cc2)o1 (stereo not shown) [Compound 469]
187 to 188 °C	Cc1ccc(C(=O)C2=C(O)C(=O)N(c3nc4ccc(F)cc4s3)C2c2cccc(OCc3ccccc3)c2)o1 (stereo not shown) [Compound 476]
134 to 135 °C	Cc1ccc(C(=O)C2=C(O)C(=O)N(c3nc4ccc(F)cc4s3)C2c2ccc(OCCO)cc2)o1 (stereo not shown) [Compound 478]
207 to 208 °C	COc1ccccc1CC(=O)C1=C(O)C(=O)N(c2nc3ccc(F)cc3s2)C1c1ccccc1F (stereo not shown) [Compound 482]
184 to 185 °C	CCOC(=O)CCC(=O)C1=C(O)C(=O)N(c2nc3ccc(F)cc3s2)C1c1ccccc1F (stereo not shown) [Compound 496]

Second part, the compound before the results:

SMILES	melting point
CC(=O)C1=C(O)C(=O)N(c2nc3c(Cl)cccc3s2)C1c1ccc(F)cc1 (stereo not shown) [Compound 426]	231 to 232 °C
CC(=O)C1=C(O)C(=O)N(c2nc3ccc(Cl)cc3s2)C1c1ccccc1F (stereo not shown) [Compound 429]	255 to 256 °C
COC1=C(C(C)=O)C(c2ccccc2F)N(c2nc3ccc(Cl)cc3s2)C1=O (stereo not shown) [Compound 430]	235 to 236 °C
CCOC1=C(C(=O)c2ccc(C)o2)C(c2ccc(O)cc2)N(c2nc3ccccc3n2C)C1=O (stereo not shown) [Compound 431]	254 to 255 °C
Cc1ccc(C(=O)C2=C(O)C(=O)N(C3CCC(O)CC3)C2c2ccccc2F)o1 (stereo not shown) [Compound 433]	204 to 206 °C
Cc1ccc(C(=O)C2=C(O)C(=O)N(C(CO)CO)C2c2ccccc2F)o1 (stereo not shown) [Compound 434]	74 to 75 °C
O=C(C1=C(O)C(=O)N(c2nc3ccc(Cl)cc3s2)C1c1ccc(F)cc1)c1nccs1 (stereo not shown) [Compound 436]	310 to 311 °C
O=C(C1=C(O)C(=O)N(c2nc3ccc(F)cc3s2)C1c1ccc(F)cc1)c1nccs1 (stereo not shown) [Compound 438]	320 to 321 °C
O=C(C1=C(O)C(=O)N(c2nc3c(Cl)cccc3s2)C1c1ccccc1F)c1nccs1 (stereo not shown) [Compound 439]	320 to 321 °C
O=C(C1=C(O)C(=O)N(c2nc3c(Cl)cccc3s2)C1c1ccc(F)cc1)c1nccs1 (stereo not shown) [Compound 440]	303 to 304 °C
COCC(=O)C1=C(O)C(=O)N(c2nc3ccc(Cl)cc3s2)C1c1ccccc1F (stereo not shown) [Compound 441]	253 to 254 °C
COCC(=O)C1=C(O)C(=O)N(c2nc3c(Cl)cccc3s2)C1c1ccccc1F (stereo not shown) [Compound 445]	231 to 233 °C
O=C(COc1ccccc1)C1=C(O)C(=O)N(c2nc3ccc(F)cc3s2)C1c1ccccc1F (stereo not shown) [Compound 448]	197 to 198 °C
O=C(COc1ccccc1)C1=C(O)C(=O)N(c2nc3c(Cl)cccc3s2)C1c1ccccc1F (stereo not shown) [Compound 449]	131 to 133 °C
O=C(COc1ccccc1)C1=C(O)C(=O)N(c2nc3c(Cl)cccc3s2)C1c1ccc(F)cc1 (stereo not shown) [Compound 450]	204 to 206 °C
O=C(C1=C(O)C(=O)N(c2nc3ccc(F)cc3s2)C1c1ccccc1F)C1CC1 (stereo not shown) [Compound 454]	234 to 235 °C
O=C(C1=C(O)C(=O)N(c2nc3ccc(F)cc3s2)C1c1ccc(F)cc1)C1CC1 (stereo not shown) [Compound 455]	221 to 223 °C
O=C(COc1ccccc1Cl)C1=C(O)C(=O)N(c2nc3ccc(F)cc3s2)C1c1ccc(F)cc1 (stereo not shown) [Compound 459]	234 to 235 °C
Cc1ccc(C(=O)C2=C(O)C(=O)N(c3nc4ccc(F)cc4s3)C2c2ccc(F)c(F)c2)o1 (stereo not shown) [Compound 462]	223 to 224 °C
Cc1ccc(C(=O)C2=C(O)C(=O)N(c3nc4c(Cl)cccc4s3)C2c2ccc(F)c(F)c2)o1 (stereo not shown) [Compound 463]	269 to 270 °C
Cc1ccc(C(=O)C2=C(O)C(=O)N(c3nc4ccc(Cl)cc4s3)C2c2ccc(-c3ccccc3)cc2)o1 (stereo not shown) [Compound 464]	244 to 245 °C
Cc1ccc(C(=O)C2=C(O)C(=O)N(c3nc4ccc(Cl)cc4s3)C2c2ccc(Oc3ccccc3)cc2)o1 (stereo not shown) [Compound 467]	238 to 239 °C

SMILES	melting point
Cc1ccc(C(=O)C2=C(O)C(=O)N(c3nc4ccc(F)cc4s3)C2c2ccc(Oc3ccccc3)cc2)o1 (stereo not shown) [Compound 468]	172 to 173 °C
Cc1ccc(C(=O)C2=C(O)C(=O)N(c3nc4ccc(Cl)cc4s3)C2c2ccc(OCc3ccccc3)cc2)o1 (stereo not shown) [Compound 470]	196 to 197 °C
Cc1ccc(C(=O)C2=C(O)C(=O)N(c3nc4ccc(F)cc4s3)C2c2ccc(OCc3ccccc3)cc2)o1 (stereo not shown) [Compound 471]	191 to 193 °C
Cc1ccc(C(=O)C2=C(O)C(=O)N(c3nc4c(Cl)cccc4s3)C2c2ccc(OCc3ccccc3)cc2)o1 (stereo not shown) [Compound 472]	240 to 241 °C
Cc1ccc(C(=O)C2=C(O)C(=O)N(c3nc4ccc(Cl)cc4s3)C2c2cccc(Oc3ccccc3)c2)o1 (stereo not shown) [Compound 473]	226 to 227 °C
Cc1ccc(C(=O)C2=C(O)C(=O)N(c3nc4ccc(Cl)cc4s3)C2c2cccc(OCc3ccccc3)c2)o1 (stereo not shown) [Compound 475]	215 to 216 °C and 213 to 214 °C
Cc1ccc(C(=O)C2=C(O)C(=O)N(c3nc4ccc(Cl)cc4s3)C2c2ccc(OCCO)cc2)o1 (stereo not shown) [Compound 477]	209 to 210 °C
Cc1ccc(C(=O)C2=C(O)C(=O)N(c3nc4ccc(Cl)cc4s3)C2c2ccc(OCCCN(C)C)cc2)o1 (stereo not shown) [Compound 479]	211 to 213 °C
Cc1ccc(C(=O)C2=C(O)C(=O)N(c3nc4ccc(F)cc4s3)C2c2ccc(OCCCN(C)C)cc2)o1 (stereo not shown) [Compound 480]	209 to 211 °C
COc1ccccc1CC(=O)C1=C(O)C(=O)N(c2nc3ccc(Cl)cc3s2)C1c1ccccc1F (stereo not shown) [Compound 481]	186 to 188 °C
COc1ccccc1CC(=O)C1=C(O)C(=O)N(c2nc3c(Cl)cccc3s2)C1c1ccccc1F (stereo not shown) [Compound 483]	224 to 226 °C
COc1ccccc1CC(=O)C1=C(O)C(=O)N(c2nc3ccc(Cl)cc3s2)C1c1ccc(F)cc1 (stereo not shown) [Compound 484]	253 to 255 °C
COc1ccccc1CC(=O)C1=C(O)C(=O)N(c2nc3ccc(F)cc3s2)C1c1ccc(F)cc1 (stereo not shown) [Compound 485]	223 to 224 °C
COc1ccccc1CC(=O)C1=C(O)C(=O)N(c2nc3c(Cl)cccc3s2)C1c1ccc(F)cc1 (stereo not shown) [Compound 486]	243 to 245 °C
COc1ccccc1CC(=O)C1=C(O)C(=O)N(c2nc3ccc(Cl)cc3s2)C1c1ccc(Cl)cc1 (stereo not shown) [Compound 487]	247 to 248 °C
COc1ccccc1CC(=O)C1=C(O)C(=O)N(c2nc3ccc(F)cc3s2)C1c1ccc(Cl)cc1 (stereo not shown) [Compound 488]	249 to 250 °C
COc1ccccc1CC(=O)C1=C(O)C(=O)N(c2nc3c(Cl)cccc3s2)C1c1ccc(Cl)cc1 (stereo not shown) [Compound 489]	176 to 178 °C
Cc1ccc(C(=O)C2=C(O)C(=O)N(CCCN(CCCNC(=O)OC(C)(C)C)C(=O)OC(C)(C)C)C2c2ccc(F)cc2)o1 (stereo not shown) [Compound 490]	146 to 148 °C
Cc1ccc(C(=O)C2=C(O)C(=O)N(CCCNCCCN)C2c2ccc(F)cc2)o1 (stereo not shown) [Compound 491]	126 to 128 °C
CCOC(=O)CCC(=O)C1=C(O)C(=O)N(c2nc3ccc(Cl)cc3s2)C1c1ccccc1F (stereo not shown) [Compound 493]	206 to 207 °C
CCOC(=O)CCC(=O)C1=C(O)C(=O)N(c2nc3ccc(Cl)cc3s2)C1c1ccc(F)cc1 (stereo not shown) [Compound 494]	224 to 225 °C
CCOC(=O)CCC(=O)C1=C(O)C(=O)N(c2nc3ccc(Cl)cc3s2)C1c1ccc(Cl)cc1 (stereo not shown) [Compound 495]	244 to 245 °C
